Experimental data reported in patent US20220402883A1, “COMPOUNDS AND METHODS FOR MODULATING RNA FUNCTION” (Arrakis Therapeutics, Inc., priority 2016, published 2022).
Where a name gives a salt, the structure may show the parent alone.

Tested on: RNA3WJ_0.0.0_5IB_3FAM (3WJ_0.0.0_5IB_3FAM RNA construct)
Experiment: Thermal shift binding assay
Conditions: for Melt. Temp. with cmpd / Shift melt. Temp.: RNA sequence 3WJ_0.0.0_5IB_FAM; for Melt. Temp. with cmpd: melting temperature in presence of compound; for Shift melt. Temp.: with cmpd minus without cmpd
Text: Purpose: Test binding of compounds for RNA three way junction (for example, a construct of 38 nt). Thermal shift assay based on established fluorescence quenching assay utilizing FAM as fluorescence tag and Iowa Black as quencher. Tags were attached at the 3′ and 5′ end, respectively. Stable formation of 3WJ upon compound binding would lead to quenching of the FAM fluorescence due to close proximity of the Iowa Black tag. Thermal unfolding leads to increase of fluorescence emission. Assay readout: FAM (465-510 nm) Thermal Shift.
Assay sample buffer used: 10 mM CacoK pH 7.2, 30 mM NaCl. Buffer preparation in Dnase/Rnase Free distilled water (Gibco Life Technologies).
Dilute the RNA 1:10 (final 10 μM) in Assay Buffer.
Heat up the diluted RNA up to 90° C. for 5 min (sealed Eppendorf Tube).
Cool down the RNA probe slowly to RT.
Dilute the compounds to 800 μM in DMSO (Assay: 8 μM). […]
Pipet 20 μL Sample Solution into Roche, Light Cycler480 Multiwell Plate96, white, REF 04729692001.
Measure the 96 plate with the LightCycler480 (Channel: 480/510 nm; Temperature: 41-91° C.).
Analyse measurement-data with the MeltingCurveGenotyping Mode.
Settings: Acquisition mode: continuous; Ramp rate: 0.1° C./sec; Acquisition: 6° C.
Curves are fitted with raw and normalized data.
Melting curves analysis show melting temperature (Tm) of ˜51° C. Range of RNA concentrations was tested and assay window was determined (conc. range of 0.5-1 μM yields best results). The choice of buffer also affected the Tm. RNA constructs were tested under different buffer conditions (especially in presence of salt) in the thermal shift assay. […] CacoK with 30 mM salt at 1 μM RNA conc. was used to assess compound effects on 3WJ stability. […] These conditions were used for screening test compounds.

| Structure (SMILES) | Melt. Temp. with cmpd [°C] | Shift melt. Temp. | Temp. Shift (1 μM RNA, 8 μM compound, 10 mM CacoK pH 7.2, 30 mM NaCl) |
| --- | --- | --- | --- |
| CN(c1ccc(-c2ccc(-c3cn[nH]c3)cc2O)nn1)C1CC(C)(C)NC(C)(C)C1 [ARK000011] | 60.3 | −1.4 °C |  |
| CN(CCOCCN(C)C(=O)[C@@H]1C[C@H](N=[N+]=[N-])CN1C(=O)COc1ccc2c(=O)oc(=O)n(C)c2c1)C(=O)CCC12c3cc(NC(=O)CCCCCCCN)ccc3C(c3ccc(NC(=O)CCCCCCCN)cc31)c1ccc(NC(=O)CCCCCCCN)cc12 [ARK000024, N,N′,N″-(9-(3-((2-(2-((2S,4S)-4-azido-N-methyl-1-(2-((1-methyl-2,4-dioxo-1,4-dihydro-2H-benzo[d][1,3]oxazin-7-yl)oxy)acetyl)pyrrolidine-2-carboxamido)ethoxy)ethyl)(methyl)amino)-3-oxopropyl)-9,10-dihydro-9,10-[1,2]benzenoanthracene-2,7,15-triyl)tris(8-aminooctanamide)] | 60.7 | +0.3 °C |  |
| CN(CCOCCOCCNC(=O)CCC12c3cc(NC(=O)CCCCCCCN)ccc3C(c3ccc(NC(=O)CCCCCCCN)cc31)c1ccc(NC(=O)CCCCCCCN)cc12)C(=O)[C@@H]1C[C@H](N=[N+]=[N-])CN1C(=O)COc1ccc2c(=O)oc(=O)n(C)c2c1 [ARK000025, N,N′,N″-(9-(1-((2S,4S)-4-azido-1-(2-((1-methyl-2,4-dioxo-1,4-dihydro-2H-benzo[d][1,3]oxazin-7-yl)oxy)acetyl)pyrrolidin-2-yl)-2,11-dimethyl-1,12-dioxo-5,8-dioxa-2,11-diazatetradecan-14-yl)-9,10-dihydro-9,10-[1,2]benzenoanthracene-2,7,15-triyl)tris(8-aminooctanamide)] | 50.4 | −10.2 °C |  |
| CN(CCOCCOCCOCCNC(=O)CCC12c3cc(NC(=O)CCCCCCCN)ccc3C(c3ccc(NC(=O)CCCCCCCN)cc31)c1ccc(NC(=O)CCCCCCCN)cc12)C(=O)[C@@H]1C[C@H](N=[N+]=[N-])CN1C(=O)COc1ccc2c(=O)oc(=O)n(C)c2c1 [ARK000026, N,N′,N″-(9-(1-((2S,4S)-4-azido-1-(2-((1-methyl-2,4-dioxo-1,4-dihydro-2H-benzo[d][1,3]oxazin-7-yl)oxy)acetyl)pyrrolidin-2-yl)-2,14-dimethyl-1,15-dioxo-5,8,11-trioxa-2,14-diazaheptadecan-17-yl)-9,10-dihydro-9,10-[1,2]benzenoanthracene-2,7,15-triyl)tris(8-aminooctanamide)] | 60.9 | −1.2 °C |  |
| CN(CCOCCN(C)C(=O)[C@@H]1C[C@H](N=[N+]=[N-])CN1C(=O)CCc1ccc(S(=O)(=O)F)cc1)C(=O)CCC12c3cc(NC(=O)CCCCCCCN)ccc3C(c3ccc(NC(=O)CCCCCCCN)cc31)c1ccc(NC(=O)CCCCCCCN)cc12 [ARK000027] | 83.4 | +23.7 °C |  |
| CN(CCOCCN(C)C(=O)[C@@H]1C[C@H](N=[N+]=[N-])CN1C(=O)c1ccc(S(=O)(=O)F)cc1)C(=O)CCC12c3cc(NC(=O)CCCCCCCN)ccc3C(c3ccc(NC(=O)CCCCCCCN)cc31)c1ccc(NC(=O)CCCCCCCN)cc12 [ARK000030] | 64.8 | +4.8 °C |  |
| CN(CCOCCOCCNC(=O)CCC12c3cc(NC(=O)CCCCCCCN)ccc3C(c3ccc(NC(=O)CCCCCCCN)cc31)c1ccc(NC(=O)CCCCCCCN)cc12)C(=O)[C@@H]1C[C@H](N=[N+]=[N-])CN1C(=O)c1ccc(S(=O)(=O)F)cc1 [ARK000031, N,N′,N″-(9-(1-((2S,4S)-4-azido-1-(3-(4-(fluorosulfonyl)benzoyl)pyrrolidin-2-yl)-2,11-dimethyl-1,12-dioxo-5,8-dioxa-2,11-diazatetradecan-14-yl)-9,10-dihydro-9,10-[1,2]benzenoanthracene-2,7,15-triyl)tris(azanediyl))tris(8-aminooctanamide)] | 84.1 | +24.1 °C | +24.1 °C |

Continued, in another order:

| Melt. Temp. with cmpd [°C] | Shift melt. Temp. | Structure (SMILES) | Temp. Shift (1 μM RNA, 8 μM compound, 10 mM CacoK pH 7.2, 30 mM NaCl) |
| --- | --- | --- | --- |
| 62.9 | +0.6 °C | C#CCCCC(=O)NC[C@H]1O[C@H](O[C@H]2[C@H](O)[C@@H](O[C@H]3O[C@H](CN=[N+]=[N-])[C@@H](O)[C@H](N)[C@H]3O)[C@H](N)C[C@@H]2N)[C@H](O)[C@@H](O)[C@@H]1O [ARK000009] |  |
| 61.4 | −0.2 °C | CC1(C)CC(Oc2ccc(-c3ccc(-c4cn[nH]c4)cc3O)nn2)CC(C)(C)N1 [ARK000010] |  |
| 83.8 | +21.3 °C | NCCCC[C@@H](N)C(=O)Nc1ccc2c(c1)C1c3cc(NC(=O)[C@H](N)CCCCN)ccc3C2c2ccc(NC(=O)[C@H](N)CCCCN)cc21 [ARK000016, (2R,2′R,2″R)—N,N′,N″-(9,10-dihydro-9,10-[1,2]benzenoanthracene-2,7,15-triyl)tris(2,6-diaminohexanamide)] |  |
| 60.6 | −0.6 °C | N[C@@H](Cc1c[nH]cn1)C(=O)Nc1ccc2c(c1)C1c3cc(NC(=O)[C@@H](N)Cc4c[nH]cn4)ccc3C2c2ccc(NC(=O)[C@@H](N)Cc3cnc[nH]3)cc21 [ARK000017, (2S,2′S,2″S)—N,N′,N″-(9,10-dihydro-9,10-[1,2]benzenoanthracene-2,7,15-triyl)tris(2-amino-3-(1H-imidazol-4-yl)propanamide)hydrochloride] |  |
| 60.8 | +0.2 °C | N[C@H](Cc1c[nH]cn1)C(=O)Nc1ccc2c(c1)C1c3cc(NC(=O)[C@H](N)Cc4c[nH]cn4)ccc3C2c2ccc(NC(=O)[C@H](N)Cc3cnc[nH]3)cc21 [ARK000018, (2R,2′R,2″R)—N,N′,N″-(9,10-dihydro-9,10-[1,2]benzenoanthracene-2,7,15-triyl)tris(2-amino-3-(1H-imidazol-4-yl)propanamide) hydrochloride] |  |
| 60.0 | −0.3 °C | O=C(O)CCC12C3=C(CCNC3)C(c3ccccc31)c1ccccc12 [ARK000019] |  |
| 60.2 | +0.3 °C | O=C(O)CCC12C3=C(CNCC3)C(c3ccccc31)c1ccccc12 [ARK000020] |  |
| 40.5 | −19.0 °C | CCOC(=O)c1ccccc1NC(=O)N1CCCN(Cc2csc(C)n2)CC1 [ARK000021] |  |
| 60.2 | +0.4 °C | CC(C)(C)OC(=O)NCCCC[C@H](NC(=O)OC(C)(C)C)C(=O)Nc1ccc2c(c1)C1(CCC(=O)NCCOCCOCCN)c3cc(NC(=O)[C@H](CCCCNC(=O)OC(C)(C)C)NC(=O)OC(C)(C)C)ccc3C2c2ccc(NC(=O)[C@H](CCCCNC(=O)OC(C)(C)C)NC(=O)OC(C)(C)C)cc21 [ARK000022] |  |
| 60.7 | +0.6 °C | CC(C)(C)OC(=O)NCCCC[C@H](NC(=O)OC(C)(C)C)C(=O)Nc1ccc2c(c1)C1(CCC(=O)NCCOCCOCCN)c3cc(NC(=O)[C@@H](CCCCNC(=O)OC(C)(C)C)NC(=O)OC(C)(C)C)ccc3C2c2ccc(NC(=O)[C@@H](CCCCNC(=O)OC(C)(C)C)NC(=O)OC(C)(C)C)cc21 [ARK000023] |  |
